{
  "source": "paper PMC5995184",
  "about": "“Potent anti-leukemic activity of a specific cyclin-dependent kinase 9 inhibitor in mouse models of chronic lymphocytic leukemia” (Oncotarget, 2018)",
  "key": {"[1]": {"molecular_target": "T1, CDK7-Cyclin H-MAT1 (Homo sapiens, UniProt P50613)", "T1 construct": "purchased Carna Biosciences", "T1 sequence (P50613 whole entry)": "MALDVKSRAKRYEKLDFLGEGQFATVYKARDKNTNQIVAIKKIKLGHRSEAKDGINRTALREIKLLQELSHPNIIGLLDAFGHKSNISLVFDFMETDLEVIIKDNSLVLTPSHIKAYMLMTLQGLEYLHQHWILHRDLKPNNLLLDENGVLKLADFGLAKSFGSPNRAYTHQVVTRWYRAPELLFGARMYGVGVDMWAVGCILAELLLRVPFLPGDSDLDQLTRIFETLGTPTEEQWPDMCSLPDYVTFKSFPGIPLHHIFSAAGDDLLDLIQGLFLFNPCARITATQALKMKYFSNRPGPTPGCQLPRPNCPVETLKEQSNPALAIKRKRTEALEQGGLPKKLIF", "T1 sequence (P51946 whole entry partner)": "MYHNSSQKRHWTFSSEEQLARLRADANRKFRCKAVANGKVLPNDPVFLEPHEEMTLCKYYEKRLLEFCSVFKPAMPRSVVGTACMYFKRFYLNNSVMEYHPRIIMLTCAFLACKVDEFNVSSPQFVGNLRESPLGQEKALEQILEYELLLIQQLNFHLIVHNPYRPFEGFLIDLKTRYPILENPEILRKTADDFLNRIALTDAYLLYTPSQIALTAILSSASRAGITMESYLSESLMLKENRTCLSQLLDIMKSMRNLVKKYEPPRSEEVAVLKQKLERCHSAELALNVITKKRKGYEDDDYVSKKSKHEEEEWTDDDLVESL", "T1 sequence (P51948 whole entry partner)": "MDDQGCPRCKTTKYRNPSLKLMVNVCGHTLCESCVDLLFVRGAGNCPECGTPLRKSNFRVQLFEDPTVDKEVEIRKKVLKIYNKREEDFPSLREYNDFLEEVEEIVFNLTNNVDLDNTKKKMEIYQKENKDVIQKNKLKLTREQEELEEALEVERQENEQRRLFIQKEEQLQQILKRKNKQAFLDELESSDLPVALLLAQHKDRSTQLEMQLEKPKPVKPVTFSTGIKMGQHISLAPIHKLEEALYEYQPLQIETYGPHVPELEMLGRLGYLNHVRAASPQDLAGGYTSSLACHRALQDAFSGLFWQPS", "assay": "FRET-based LANCE Ultra in vitro enzymatic kinase assay, CDK7", "assay_type": "biochemical", "protocol": "(§1) IC50 values for CDK inhibitors were determined using the fluorescence resonance energy transfer (FRET)-based LANCE Ultra KinaSelect Ser/Thr kit (Perkin Elmer). Kinase activity and inhibition were measured according to the manufacturer’s instructions and as previously described. […] FRET signals were recorded in a time-resolved manner in a Perkin Elmer EnVision reader. Purified cyclin-kinase pairs were obtained from the following suppliers: Carna Biosciences (CDK1-Cyclin B1, CDK6-Cyclin D3, CDK7-Cyclin H-MAT1), ProQinase (CDK2-Cyclin A) and Invitrogen (CDK9-Cyclin T1).\n(§2) Data were analyzed with GraphPad Prism 7 software. Differences were assessed by unpaired or paired Student t tests if not indicated otherwise. Two-sided probabilities of less than 0.05 were considered significant. Nonlinear regression sigmoidal dose-response curve fit was used to determine the IC50 values and to generate graphs."}, "[2]": {"system": "non-malignant normal donor B cells", "assay": "Normal donor B cell viability (Annexin V/DAPI, absolute counts)", "assay_type": "cell-based", "conditions": "Homo sapiens, read-out: IC50, viable non-malignant B cells", "protocol": "The MEC-1 cell line was obtained from the DSMZ (Braunschweig, Germany) and was cultured in RPMI (10% fetal bovine serum). A LDC526 stock solution was prepared with DMSO, diluted and added to the cultures to reach the specified concentrations. Samples (percentage of CD19+CD5+ CLL cells >90%) of n=37 CLL patients (Table 1) and n=6 healthy normal donor controls were used for experiments after obtaining informed consent according to institutional guidelines, approved by the Ethics Commission of the University of Essen-Duisburg. Peripheral blood mononuclear cells (PBMC) were isolated using Lymphoprep ([…] Technologies, Cologne, Germany) density gradient centrifugation and were used directly for NSG transplantation or in vitro experiments. Untouched normal donor B cells were isolated with a B cell isolation kit (Miltenyi, Bergisch Gladbach, Germany) according to the manufacturer’s instructions. […]\nApoptosis and cell death were determined by using Annexin V (BD Biosciences, Heidelberg, Germany) and 4′,6-Diamidin-2-phenylindol (DAPI, Sigma-Aldrich) staining. […] Flow cytometric data were analyzed with BD FACSDiva or FlowJo software (FLOWJO, LLC, Ashland, OR, USA). […]\nData were analyzed with GraphPad Prism 7 software. Differences were assessed by unpaired or paired Student t tests if not indicated otherwise. […]"}, "[3]": {"molecular_target": "T2, CDK9-Cyclin T1 (Homo sapiens, UniProt P50750)", "T2 construct": "purchased Invitrogen", "T2 sequence (P50750 whole entry)": "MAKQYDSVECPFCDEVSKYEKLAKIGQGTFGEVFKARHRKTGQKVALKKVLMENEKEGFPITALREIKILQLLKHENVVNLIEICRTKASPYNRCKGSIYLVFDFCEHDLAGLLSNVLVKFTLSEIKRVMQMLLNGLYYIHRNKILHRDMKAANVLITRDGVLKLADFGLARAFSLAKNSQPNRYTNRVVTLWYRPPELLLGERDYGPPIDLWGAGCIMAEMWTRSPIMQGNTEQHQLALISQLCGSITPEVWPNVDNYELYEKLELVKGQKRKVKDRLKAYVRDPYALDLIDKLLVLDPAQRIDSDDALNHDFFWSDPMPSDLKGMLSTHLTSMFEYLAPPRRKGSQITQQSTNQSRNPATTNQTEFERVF", "T2 sequence (O60563 whole entry partner)": "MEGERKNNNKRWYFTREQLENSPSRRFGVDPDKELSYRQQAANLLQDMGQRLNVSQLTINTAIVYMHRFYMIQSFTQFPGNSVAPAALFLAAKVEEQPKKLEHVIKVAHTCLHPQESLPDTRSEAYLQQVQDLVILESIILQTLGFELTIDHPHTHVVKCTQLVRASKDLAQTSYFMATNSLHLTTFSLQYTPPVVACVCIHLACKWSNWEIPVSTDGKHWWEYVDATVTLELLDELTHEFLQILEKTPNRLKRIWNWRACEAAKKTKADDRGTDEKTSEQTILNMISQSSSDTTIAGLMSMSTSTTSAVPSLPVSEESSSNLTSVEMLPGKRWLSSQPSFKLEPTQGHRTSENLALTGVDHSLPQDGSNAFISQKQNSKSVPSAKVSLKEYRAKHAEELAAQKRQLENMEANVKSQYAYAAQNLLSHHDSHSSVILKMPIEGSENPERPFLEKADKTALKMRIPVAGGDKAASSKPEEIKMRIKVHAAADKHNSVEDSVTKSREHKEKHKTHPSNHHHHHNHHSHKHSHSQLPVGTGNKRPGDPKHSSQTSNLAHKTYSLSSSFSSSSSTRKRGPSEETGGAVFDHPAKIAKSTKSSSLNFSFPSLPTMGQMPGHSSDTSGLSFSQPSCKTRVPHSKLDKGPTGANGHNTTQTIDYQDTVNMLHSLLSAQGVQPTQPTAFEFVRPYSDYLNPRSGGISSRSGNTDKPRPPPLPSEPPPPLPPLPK", "assay": "FRET-based LANCE Ultra in vitro enzymatic kinase assay, CDK9", "assay_type": "biochemical", "conditions": "CDK9 versus other CDKs", "protocol": "as §1, §2"}, "[4]": {"system": "panel of 219 recombinant kinases", "assay": "Broad in vitro selectivity kinase profiling", "assay_type": "biochemical", "conditions": "1 μM LDC526, 219 kinases", "protocol": "IC50 values for CDK inhibitors were determined using the fluorescence resonance energy transfer (FRET)-based LANCE Ultra KinaSelect Ser/Thr kit (Perkin Elmer). Kinase activity and inhibition were measured according to the manufacturer’s instructions and as previously described. […] Subsequently, phosporylation was detected by addition of specific europium (Eu)-labeled anti-phospho-antibodies (2 nM), which upon binding to the phospho-peptide give rise to a FRET signal. FRET signals were recorded in a time-resolved manner in a Perkin Elmer EnVision reader. Purified cyclin-kinase pairs were obtained from the following suppliers: Carna Biosciences (CDK1-Cyclin B1, CDK6-Cyclin D3, CDK7-Cyclin H-MAT1), ProQinase (CDK2-Cyclin A) and Invitrogen (CDK9-Cyclin T1). Broad selectivity kinase in vitro profiling with LDC526 was carried out using n=219 recombinant kinases (Millipore/Merck, Darmstadt, Germany)."}, "[5]": {"molecular_target": "T3, CDK2-Cyclin A (Homo sapiens, UniProt P24941)", "T3 construct": "purchased ProQinase", "assay": "FRET-based LANCE Ultra in vitro enzymatic kinase assay, CDK2", "assay_type": "biochemical", "protocol": "as §1, §2"}, "[6]": {"molecular_target": "T4, CDK6-Cyclin D3 (Homo sapiens, UniProt Q00534)", "T4 construct": "purchased Carna Biosciences", "T4 sequence (Q00534 whole entry)": "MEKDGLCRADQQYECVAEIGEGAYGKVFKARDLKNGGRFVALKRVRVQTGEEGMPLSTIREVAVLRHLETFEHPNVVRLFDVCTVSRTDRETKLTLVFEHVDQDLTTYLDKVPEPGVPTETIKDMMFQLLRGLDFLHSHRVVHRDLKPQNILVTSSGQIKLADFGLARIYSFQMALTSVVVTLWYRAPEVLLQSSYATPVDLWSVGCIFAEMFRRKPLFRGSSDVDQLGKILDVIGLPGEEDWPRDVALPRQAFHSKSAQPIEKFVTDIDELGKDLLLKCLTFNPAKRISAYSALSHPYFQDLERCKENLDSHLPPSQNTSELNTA", "T4 sequence (P30281 whole entry partner)": "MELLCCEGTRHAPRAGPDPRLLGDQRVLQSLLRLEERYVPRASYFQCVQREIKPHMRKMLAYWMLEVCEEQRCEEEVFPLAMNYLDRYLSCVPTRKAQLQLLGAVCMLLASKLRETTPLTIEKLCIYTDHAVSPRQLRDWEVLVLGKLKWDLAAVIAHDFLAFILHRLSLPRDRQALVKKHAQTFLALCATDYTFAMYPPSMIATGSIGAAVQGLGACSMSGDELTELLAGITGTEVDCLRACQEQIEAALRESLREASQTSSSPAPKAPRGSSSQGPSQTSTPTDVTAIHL", "assay": "FRET-based LANCE Ultra in vitro enzymatic kinase assay, CDK6", "assay_type": "biochemical", "protocol": "as §1, §2"}, "[7]": {"system": "CDK6-Cyclin D3", "assay": "FRET-based LANCE Ultra in vitro enzymatic kinase assay, CDK6", "assay_type": "biochemical", "protocol": "as §1, §2"}},
  "note": "Read-outs that look alike come from different tables or passages of the source.",
  "data": [
    {"smiles": "COc1cc(F)ccc1-c1ncnc(Nc2cccc(CS(N)(=O)=O)c2)n1", "note": "[LDC526, (3-((4-(4-fluoro-2-methoxyphenyl)-1,3,5-triazin-2-yl)amino)phenyl)methane-sulfonamide]", "values": [
      {"measurement": "IC50", "setting": "[1]", "result": "> 10000", "unit": "nM"},
      {"measurement": "IC50", "setting": "[2]; 24 hours incubation", "result": 900, "unit": "nM"},
      {"measurement": "IC50", "setting": "[2]; 48 hours incubation", "result": 1480, "unit": "nM"},
      {"measurement": "selectivity against other CDKs", "setting": "[3]", "result": "at least 50 fold"},
      {"measurement": "share of tested kinases still displaying an activity of greater than 80%", "setting": "[4]", "result": "More than 85%"},
      {"measurement": "selectivity versus CDK9 compared to CDK2", "setting": "[5]", "result": 52, "unit": "fold"},
      {"measurement": "IC50", "setting": "[6]", "result": "> 10000", "unit": "nM"},
      {"measurement": "selectivity versus CDK9 compared to CDK6", "setting": "[7]", "result": "> 900", "unit": "fold"}
    ]}
  ]
}
